The term EC50 denotes the concentration that produces a half-maximal response. What is called IC50 is the point on the concentration scale where inhibition reaches its midpoint. Low values mean inhibition by little substance, high ones a need for much substance. Usually solubility stands for the concentration that dissolves in the medium under given conditions. The low end stands for a poorly soluble substance, the high end for a readily soluble substance. In general, logD refers to lipophilicity at a set pH, counting ionised and neutral species. Low readings indicate a more hydrophilic compound, high ones a more lipophilic compound.

The subject of data set [1] is Hepatitis C virus. As to the kind of experiment: microbe, parasite or virus in culture. The note with it: GT1b-genotype.
The target of data set [2] is Tyrosine-protein kinase ABL1 (Homo sapiens, UniProt P00519). As to the kind of experiment: Inhibition of ABL1 (unknown origin).
Data set [3] can be described thus: physchem. The note with it: buffer, pH 7.4.
Data set [4] can be described thus: Inhibition of LFA-1/ICAM-1 (unknown origin) interaction. Details: species or system Homo sapiens.
A short description of data set [5]: Solubility of the compound. The data set is classed as physicochemical.
A short description of data set [6]: Lipophilicity, logD of the compound at pH 7.4. The data set is classed as physicochemical. The note with it: buffer.
A short description of data set [7]: Clearance in rat liver microsomes. In kind it is ADME, Microsome. A general note: Liver microsomes are vesicles of endoplasmic reticulum, rich in cytochrome P450 enzymes.
A short description of data set [8]: Solubility of the compound in FaSSIF at pH 6.8 by RapidFire mass spectrometry. In kind it is ADME. The note with it: simulated gi fluid.
Data set [9] is described as follows: Solubility of compound at pH 6.8 by RapidFire mass spectrometry. In kind it is physicochemical. The note with it: buffer.

Values after ≈ are worked out from the molar mass of the structure shown.

Tyrosine-protein kinase ABL1, sequence (P00519 whole entry): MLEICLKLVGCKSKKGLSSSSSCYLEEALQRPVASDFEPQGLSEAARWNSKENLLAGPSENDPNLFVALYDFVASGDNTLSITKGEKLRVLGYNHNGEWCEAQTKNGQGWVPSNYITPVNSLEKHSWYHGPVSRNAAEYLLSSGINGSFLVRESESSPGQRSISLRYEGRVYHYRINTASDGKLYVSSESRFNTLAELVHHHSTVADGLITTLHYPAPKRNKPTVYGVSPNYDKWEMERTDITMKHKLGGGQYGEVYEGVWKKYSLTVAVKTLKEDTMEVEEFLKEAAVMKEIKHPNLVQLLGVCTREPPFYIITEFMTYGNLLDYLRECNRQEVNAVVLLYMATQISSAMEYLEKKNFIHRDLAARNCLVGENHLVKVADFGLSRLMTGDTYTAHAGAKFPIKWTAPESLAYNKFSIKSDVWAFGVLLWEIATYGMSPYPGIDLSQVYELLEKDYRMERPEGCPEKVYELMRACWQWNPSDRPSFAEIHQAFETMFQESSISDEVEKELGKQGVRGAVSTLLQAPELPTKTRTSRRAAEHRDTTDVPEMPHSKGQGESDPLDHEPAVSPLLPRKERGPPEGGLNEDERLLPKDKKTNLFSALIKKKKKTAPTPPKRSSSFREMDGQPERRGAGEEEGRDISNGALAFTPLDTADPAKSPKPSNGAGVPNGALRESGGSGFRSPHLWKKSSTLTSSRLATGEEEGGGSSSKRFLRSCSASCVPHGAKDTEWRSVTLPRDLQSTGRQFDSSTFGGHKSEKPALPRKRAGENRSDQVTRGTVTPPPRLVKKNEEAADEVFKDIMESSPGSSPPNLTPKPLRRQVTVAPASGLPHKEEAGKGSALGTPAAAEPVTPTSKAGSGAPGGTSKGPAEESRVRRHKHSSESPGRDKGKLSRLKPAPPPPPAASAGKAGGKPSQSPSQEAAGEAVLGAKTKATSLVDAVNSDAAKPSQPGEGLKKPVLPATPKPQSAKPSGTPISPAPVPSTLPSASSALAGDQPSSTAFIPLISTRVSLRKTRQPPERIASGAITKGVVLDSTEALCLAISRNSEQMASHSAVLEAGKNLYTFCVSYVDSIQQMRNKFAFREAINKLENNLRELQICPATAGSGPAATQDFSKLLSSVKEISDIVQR

Turning to `COC(=O)N[C@@H](C(=O)N1CCC[C@@H]1c1ncc(-c2ccc(-c3cc4oc(-c5cnc([C@H]6CCCN6C(=O)[C@H](NC(=O)OC)C(C)C)[nH]5)cc4s3)cc2)[nH]1)C(C)C`, the EC50 in data set [1] is less than 1 nM.

The compound `Cc1ccc(NC(=O)C23CC(CN4CCN(C)CC4)(C2)C3)cc1Nc1nccc(-c2cccnc2)n1` returned an IC50 in data set [2] of more than 1000 nM. The same compound had a solubility in data set [3] of 2680 µM.

On to `CC(=O)c1ccccc1C(C)(C)C`, for which the concentration in solution in [3] (solubility) came to 12100 µg/mL.

In turn, `N#Cc1ccc(Br)cc1` had a solubility in [3] of 194 µg/mL.

`Cc1ccc(NC(=O)[C@H]2C[C@@H](CN3CCN(C)CC3)C2)cc1Nc1nccc(-c2cccnc2)n1` showed an IC50 in data set [2] of more than 1000 nM.

On to `CC(C)c1ccccc1Sc1ccc(C2CC2C(=O)NCCCN2CCCC2=O)c(Cl)c1Cl` (racemic), for which the IC50 in [4] is 7 nM.

`CC(=O)Nc1nc2c(Oc3cc(N4CCN([C@H](C)c5ccc(F)cc5)CC4)ncn3)cccc2s1`: the solubility in [5] is more than 200 µg/mL.

`CC(C)(C)c1cccc(C(=O)O)c1`: the solubility in [3] came out at 8080 µg/mL.

In the case of `N#Cc1cccc(Br)c1`, the concentration in solution in data set [3] (solubility) came to 637 µg/mL.

Take `COC(=O)N[C@@H](C(=O)N1CCC[C@@H]1c1ncc(-c2ccc(-n3ccc4c(-c5cnc([C@H]6CCCN6C(=O)[C@H](NC(=O)OC)C(C)C)[nH]5)csc43)c(Cl)c2)[nH]1)C(C)C`: the EC50 in data set [1] is less than 1 nM.

`CC(=O)N1CCN(c2cc(-c3ccc(Sc4ccccc4C(C)C)c(C(F)(F)F)c3)ncn2)CC1` returned an IC50 in data set [4] of 220 nM.

With `N#Cc1ccccc1Br`, in [3], the concentration in solution (solubility) was 412 µg/mL.

In the case of `Cc1ccc(NC(=O)[C@H]2C[C@@H]2CN2CCN(C)CC2)cc1Nc1nccc(-c2cccnc2)n1`, the IC50 in [2] was more than 1000 nM.

As for `CC(=O)N1CCN(c2nc(-c3ccc(Sc4ccccc4C(C)C)c(C(F)(F)F)c3)co2)CC1`, in data set [4], the midpoint of inhibition, the IC50, lay at 2500 nM.

Compound `O=C(C1[C@@H]2CC[C@@]1(c1ccccc1)C2)N1CCCCC1` (some centres undefined) displayed a logD in data set [6] of 3.7. The solubility in data set [3] is 492 µM.

`COc1ccccc1N1CCN(CCCCNC(=O)c2ccc(B3C=CC=CN3)cc2)CC1`: in data set [7], the CLhep predicted is 53 mL/min/kg. For the same compound, the solubility in data set [8] was 0.22 µM (≈ 0.0978 µg/mL); in data set [9] it was 0.046 µM (≈ 0.0204 µg/mL).

In the case of `Cc1ccc(NC(=O)[C@H]2CC[C@H](CN3CCN(C)CC3)CC2)cc1Nc1nccc(-c2cccnc2)n1`, in data set [2], the IC50 was more than 1000 nM. This compound also showed a solubility in data set [3] of 56 µM.

Regarding `Cc1ccc(NC(=O)CCCCCN2CCN(C)CC2)cc1Nc1nccc(-c2cccnc2)n1`, the IC50 in [2] was more than 1000 nM.

Compound `O=C(c1ccccc1-c1ccccc1)N1CCCCC1` had a logD in data set [6] of 3.5. Also, the concentration in solution in [3] (solubility) was 397 µM.

Consider `CC(=O)N1CCN(c2cc(-c3ccc(Sc4ccccc4C(C)C)c(C(F)(F)F)c3)ccn2)CC1`, for which 93 nM corresponded to half-maximal inhibition in data set [4] (IC50).

With `O=C(/C=C/c1ccc(Sc2ccc(Cl)cc2Cl)c(Br)c1)NCCCN1CCCC1=O`, 650 nM corresponded to half-maximal inhibition in data set [4] (IC50).

Turning to `Cc1ccc(NC(=O)[C@@H]2C[C@H]2CN2CCN(C)CC2)cc1Nc1nccc(-c2cccnc2)n1`, in [2], the IC50 is more than 1000 nM. The solubility in data set [3] turned out to be 3720 µM.

Compound `CC(=O)N1CCN(c2nc(-c3ccc(Sc4ccccc4C(C)C)c(C(F)(F)F)c3)cs2)CC1` registered an IC50 in data set [4] of 3000 nM.

The compound `CC(=O)Nc1nc2c(Oc3cc(N4CCN(CC(F)(F)F)CC4)ncn3)cccc2s1` registered a solubility in [5] of more than 200 µg/mL.

`COC(=O)N[C@@H](C(=O)N1CCC[C@@H]1c1ncc(-c2cn3cc(-c4cnc([C@H]5CCCN5C(=O)[C@H](NC(=O)OC)C(C)C)[nH]4)sc3n2)[nH]1)C(C)C`: the EC50 in data set [1] is less than 1 nM.

Regarding `CC(=O)N1CCN(C(=O)/C=C/c2ccc(Sc3ccccc3C(C)C)c(C(F)(F)F)c2)CC1`, half-maximal inhibition in data set [4] (IC50) required 60 nM.

On to `Cc1ccc(NC(=O)[C@@H]2CC[C@H](CN3CCN(C)CC3)C2)cc1Nc1nccc(-c2cccnc2)n1`, for which the IC50 in [2] is more than 1000 nM. The compound further had a solubility in [3] of 885 µM.

As for `Cc1ccc(NC(=O)CCCCN2CCN(C)CC2)cc1Nc1nccc(-c2cccnc2)n1`, the concentration for half-maximal inhibition (IC50) in [2] is more than 1000 nM. The compound also gave a solubility in data set [3] of 356 µM.

As to `Cc1ccc(NC(=O)[C@H]2C[C@H](CN3CCN(C)CC3)C2)cc1Nc1nccc(-c2cccnc2)n1`, the IC50 in data set [2] is more than 1000 nM. Moreover, the solubility in [3] came to 2000 µM.
